Consider 1 compound from patent US6642263B2, “Modulators of Rho C activity” (Iconix Pharmaceuticals Inc., priority 2001, dated 2003).

The experiment addresses T1, RhoC (Homo sapiens, UniProt P08134).
T1 construct: cDNAs corresponding to the complete open reading frame of RhoC were PCR amplified; expressed in transfected cells; host or cells: Saccharomyces cerevisiae strain EIS20-2B, pARC35B-derived expression plasmid integrated at LYS2, galactose-induced
Nature of the experiment: Yeast growth restoration assay (RhoC expressed in yeast, surrogate genetic assay). In kind it is cell-based, mammalian. The conditions noted are these: retested in dilutions from 0.5 μM to 128 μM; 30° C., 40-42 hrs, OD600. As to the method:
Compounds of the invention are assayed for activity using any convenient biochemical or biological assay. For example, one can examine compounds for binding to recombinantly-expressed RhoC, assay compounds for their ability to reverse a RhoC-induced phenotype in a heterologous cell (see e.g., WO99/24563, incorporated herein by reference), or using one or more of the experimental protocols described in the references cited herein. […] Compounds were also examined for inhibition of stress fibers, by stimulating NIH 3T3 cells with 10 μM LPA in DMEM+0.2% FBS in the presence of test compounds for 4 hours.
(A) cDNAs corresponding to the complete open reading frame of RhoC were PCR amplified from pooled total cDNAs initially synthesized from placental, fetal brain, and fetal liver poly(A)^+ mRNAs (Clontech Laboratories, Inc.). […]
After PCR, approximately 200 ng of amplified cDNA was cotransformed with approximately 100 ng of vector into yeast and transformants were selected for leucine prototrophy. […] Plasmids from at least three independent transformants were subsequently rescued into the E. coli strain DH5alpha via electroporation, and further characterized by restriction enzyme analysis and DNA sequencing of the RhoC open reading frame. […]

Structures are written as SMILES.

T1 sequence (P08134 whole entry): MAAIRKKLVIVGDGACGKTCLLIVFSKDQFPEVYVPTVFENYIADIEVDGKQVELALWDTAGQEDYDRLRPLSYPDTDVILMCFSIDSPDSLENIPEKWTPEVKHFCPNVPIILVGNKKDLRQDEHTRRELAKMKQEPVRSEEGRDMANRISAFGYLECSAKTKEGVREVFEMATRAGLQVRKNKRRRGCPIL

For `Cc1ccc(NS(=O)(=O)CSc2nc3ccccc3s2)cc1` [2-(4-methylphenylsulfamyl)methylthio-benzo[d]thiazole], the “potency / activity (growth restoration of RhoC-expressing yeast)” value is “only weak activity”.
